Data reported in article PMC9221509, “Discovery of a Novel Antimicrobial Peptide, Temporin-PKE, from the Skin Secretion of Pelophylax kl. esculentus, and Evaluation of Its Structure-Activity Relationships” (Biomolecules, 2022).
In brackets after ≈: the same amount, converted by molar mass. Where two headings read alike, the source gives them in different places. Non-standard residues stand in square brackets, D forms with d. Residues, ends and D or L forms follow the SMILES beside them. No end group written: not given here.

Experiments:
[1] = tested on: K. pneumoniae (ATCC BAA-1705); assay: microbe, parasite or virus in culture; format: cell-based, Klebsiella pneumoniae; conditions: for MBC: ATCC BAA-1705, 18 h; for MIC: ATCC BAA-1705, 24 h
Protocol: (§1) The antimicrobial activities of peptides were evaluated against the Gram-positive bacteria, S. aureus (ATCC 6538), methicillin-resistant Staphylococcus aureus (MRSA) (NCTC 12493), Enterococcus faecalis (E. faecalis) (NCTC 12697); the Gram-negative bacteria, E. coli (ATCC CRM 8739), Klebsiella pneumoniae (K. pneumoniae) (ATCC 43816), Pseudomonas aeruginosa (P. aeruginosa) (ATCC CRM 9027); and the yeast, Candida albicans (C. albicans) (ATCC CRM 10231). Clinical isolates of MRSA (B042 V2E1 A), E. coli (ATCC BAA-2340), K. pneumoniae (ATCC BAA-1705), and P. aeruginosa (B004 V2S2 B) were also used to determine their antimicrobial activities. The suspension of microorganisms in the logarithmic growth phase with a specific final density (Gram-negative and Gram-positive bacteria: 5 × 10^5 CFU/mL; yeast: 1 × 10^6 CFU/mL) was incubated with different peptide concentrations from 1 µM to 512 µM at 37 °C for 24 h. PBS was used as the negative control, and norfloxacin and amphotericin B were selected as the positive control for bacteria and yeast, respectively. Since the Norfloxacin had weak activities against P. aeruginosa (B004 V2S2 B) and K. pneumoniae (ATCC BAA 1705), gentamicin was used as the positive control for these two bacterial strains. The absorbance of each well was obtained using a microplate reader (EL808, Biolise BioTek, Winooski, VT, USA) set at 550 nm wavelength. The MIC value was the lowest concentration of a peptide that inhibits visible bacterial growth. Once the MIC values were determined, an aliquot from the bacterial culture exposed to the peptide at or above its MIC value was inoculated on a Mueller Hinton agar (MHA) and was incubated at 37 for 18 h. The MBC value was the lowest concentration of a peptide that kills 99.9% of bacteria.

[2] = tested on: K. pneumoniae (ATCC 43816); assay: microbe, parasite or virus in culture; format: cell-based, Klebsiella pneumoniae; conditions: for MBC: ATCC 43816, 18 h; for MIC: ATCC 43816, 24 h
Protocol: as §1

MRSA (NCTC 12493) = format: cell-based, methicillin-resistant Staphylococcus aureus; conditions: NCTC 12493, 24 h
Protocol: as §1
(§2) According to the procedures in a previous article, the analysis of the sensitivity of the peptides was determined by measuring MIC values in the presence of different types of salts and 10% fetal bovine serum. MRSA (NCTC 12493) and K. pneumoniae (ATCC 43816) were selected as the subjects of these assays. Various salts at different concentrations, including 150 mM NaCl, 4.5 mM KCl, 6 μM NH4Cl, 1 mM MgCl2, […], […], and 10% serum (Gibco, Auckland, New Zealand), were added to the MHB medium for the examination of the MIC values which were determined as described in Section 2.7.

[3] = tested on: E. faecalis (NCTC 12697) biofilm; format: cell-based, Enterococcus faecalis; conditions: NCTC 12697, 24 h
Protocol: The anti-biofilm activities of the peptides against S. aureus (ATCC 6538), MRSA (NCTC 12493), E. faecalis (NCTC 12697), E. coli (ATCC CRM 8739), K. pneumoniae (ATCC 43816), and P. aeruginosa (ATCC CRM 9027), were evaluated. For the MBIC assay, 99 µL of bacterial suspension (5 × 10^5 CFU/mL) was mixed with 1 µL of serial dilutions (from 100 µM to 51,200 µM) of temporin-PKE and its analogues in a 96-well plate, and the plate was incubated in a moist shaking incubator at a speed of 200 rpm at 37 °C for 24 h. For the MBEC assay, 100 µL of bacterial suspension (5 × 10^5 CFU/mL) in each well was seeded in a new 96-well plate, and the plate was put into the same shaking incubator for 24 h incubation to allow biofilm formation on the well. After biofilm formation, the biofilm in the plate was washed with PBS twice. The PBS was aspirated between washes to remove planktonic bacterial cells. The washed biofilm in each well was treated with 100 µL of serial dilutions (from 1 µM to 512 µM) of the test peptides. Then, the plate was incubated in the same shaking incubator for another 24 h. After being washed by PBS twice and fixed with methanol, the biofilm in each well was incubated with 100 µL of 0.1% crystal violet for 30 min, and the stained biofilm was dissolved in 100 µL of glacial acidic acid after drying. The solutions were transferred to a new microplate, and the absorbance of each well was measured using a microplate reader (EL808, Biolise BioTek, Winooski, VT, USA) set to 595 nm wavelength. The MBIC was the minimum concentration of the peptide showing no biofilm formation. The MBEC is the lowest concentration of the peptide capable of eradicating the mature biofilms, which had no biofilm in the well.

E. faecalis (NCTC 12697) = assay: microbe, parasite or virus in culture; format: cell-based, Enterococcus faecalis; conditions: for MBC: NCTC 12697, 18 h; for MIC: NCTC 12697, 24 h
Protocol: as §1

horse red blood cells = format: cell-based
Protocol: As a previous study described in detail, the haemolysis activity assays of peptides were conducted on defibrinated horse blood (TCS Biosciences Ltd., Buckingham, UK) with an erythrocyte suspension concentration of 2% (v/v). The 120 μL of peptide solution in a gradient concentration ranging from 1µM to 512 µM was mixed with the same volume of 2% horse red blood cell suspension, and the complex was incubated at 37 °C for 2 h. PBS and 0.1% Triton X-100 were chosen as the negative and positive control, respectively. After centrifugation at 900× g for 5 min, the absorbance of the supernatant was analysed using a microplate reader (EL808, Biolise BioTek, Winooski, VT, USA) set to a wavelength of 570 nm. The equation to calculate the haemolysis of the peptides is shown below: Haemolysis (%)=A−An/Ap−An×100% where A represents the absorbance of each treatment group, An represents the average absorbance of the negative control group, and Ap represents the average absorbance of the positive control group.

[4] = tested on: K. pneumoniae (ATCC 43816); format: cell-based, Klebsiella pneumoniae; conditions: ATCC 43816, 24 h
Protocol: as §1, §2

Compound | MBC ([1]; read-out: MBC) [µM] | MIC ([1]; read-out: MIC) [µM] | MIC against MRSA in the presence of 4 µM FeCl3 (MRSA (NCTC 12493)) [µM] | MIC against MRSA in the presence of 8 µM ZnCl2 (MRSA (NCTC 12493)) [µM] | MIC against MRSA in the presence of 2 mM CaCl2 (MRSA (NCTC 12493)) [µM] | MIC against MRSA in the presence of 150 mM NaCl (MRSA (NCTC 12493)) [µM] | MIC against MRSA in the presence of 10% FBS (MRSA (NCTC 12493)) [µM] | MBIC [3] [µM] | MBC (E. faecalis (NCTC 12697)) [µM] | MIC (E. faecalis (NCTC 12697)) [µM] | HC50 (horse red blood cells; red cells of horse, 2 h) [µM] | MIC against K. pneumoniae in the presence of 4 µM FeCl3 [4] [µM] | MIC against K. pneumoniae in the presence of 6 µM NH4Cl [4] [µM] | MIC against K. pneumoniae in the presence of 8 µM ZnCl2 [4] [µM] | MIC against K. pneumoniae in the presence of 1 mM MgCl2 [4] [µM] | MIC against K. pneumoniae in the presence of 2 mM CaCl2 [4] [µM] | MIC against K. pneumoniae in the presence of 4.5 mM KCl [4] [µM] | MIC against K. pneumoniae in the presence of 150 mM NaCl [4] [µM] | MIC against K. pneumoniae in the presence of 10% FBS [4] [µM] | MIC against K. pneumoniae, Negative [4] [µM] | also measured
CC[C@@H](C)[C@@H](NC(=O)[C@H](CCCCN)NC(=O)[C@@H]1CCCN1C(=O)[C@H](CC(C)C)NC(=O)[C@H](CC(C)C)NC(=O)[C@H](CO)NC(=O)[C@H](CO)NC(=O)[C@H](CC(C)C)NC(=O)[C@H](C)NC(=O)CNC(=O)[C@@H](NC(=O)[C@@H](NC(=O)[C@H](CC(C)C)NC(=O)[C@@H]1CCCN1C(=O)[C@H](CC(C)C)NC(=O)[C@@H](N)Cc1ccccc1)[C@@H](C)CC)[C@@H](C)CC)C(=O)N[C@@H](Cc1ccccc1)C(N)=O [Temporin-PKE-i] (H-FLPLIIGALSSLLPK[dI]F-NH2) | >512 | >512 | 2 | 16 | 4 | 4 | 8 | 4 | 4 (≈ 7.37 µg/mL) | 4 (≈ 7.37 µg/mL) | 68.37 | >512 | >512 | >512 | >512 | >512 | >512 | >512 | >512 | >512 | MBC ([2]; read-out: MBC): >512 µM; MIC ([2]; read-out: MIC): >512 µM
FLPKIIGKLSSKLPKIF-NH2 [Temporin-PKE-4K] | – | – | 32 | 128 | 64 | 128 | 128 | 256 | 32 | 32 | 1671 | 16 | 16 | 16 | 64 | 128 | 16 | 64 | 64 | 16 | MBC [1]: 32 µM; MIC [1]: 32 µM; MBC [2]: 16 µM; MIC [2]: 16 µM; MIC against MRSA in the presence of 6 µM NH4Cl (MRSA (NCTC 12493)): 32 µM; MIC against MRSA in the presence of 1 mM MgCl2 (MRSA (NCTC 12493)): 32 µM; MIC against MRSA in the presence of 4.5 mM KCl (MRSA (NCTC 12493)): 32 µM; MIC against MRSA, Negative (MRSA (NCTC 12493)): 32 µM; HC50 (horse red blood cells): 1671 µM
CC[C@@H](C)[C@@H](NC(=O)[C@H](CCCCN)NC(=O)[C@@H]1CCCN1C(=O)[C@H](CC(C)C)NC(=O)[C@H](CC(C)C)NC(=O)[C@H](CO)NC(=O)[C@H](CO)NC(=O)[C@H](CC(C)C)NC(=O)[C@H](C)NC(=O)CNC(=O)[C@H](NC(=O)[C@H](NC(=O)[C@H](CC(C)C)NC(=O)[C@@H]1CCCN1C(=O)[C@H](CC(C)C)NC(=O)[C@@H](N)Cc1ccccc1)[C@H](C)CC)[C@H](C)CC)C(=O)N[C@@H](Cc1ccccc1)C(N)=O [Temporin-PKE-3i] (H-FLPL[dI][dI]GALSSLLPK[dI]F-NH2) | >512 | >512 | 128 | 512 | 256 | 512 | 512 | 128 | 128 (≈ 236 µg/mL) | 128 (≈ 236 µg/mL) | 64.0 | >512 | >512 | >512 | >512 | >512 | >512 | >512 | >512 | >512 | MBC ([2]; read-out: MBC): >512 µM; MIC ([2]; read-out: MIC): >512 µM; MIC against MRSA in the presence of 6 µM NH4Cl (MRSA (NCTC 12493)): 256 µM; MIC against MRSA in the presence of 1 mM MgCl2 (MRSA (NCTC 12493)): 256 µM; MIC against MRSA in the presence of 4.5 mM KCl (MRSA (NCTC 12493)): 512 µM; MIC against MRSA, Negative (MRSA (NCTC 12493)): 64 µM (≈ 118 µg/mL)
